Among the data in patent publication US9656945B2, “3-acyl-ingenols II” (LEO LABORATORIES LIMITED, priority 2010, dated 2017) are EC50 values, retold here.

pEC50: −log10 of the molar value. Like-named read-outs stand apart in the source and are kept apart here.

What all share (assay type): cell-based
In test [1] the test system is PMN's (polymorphonuclear leukocytes). Put plainly: Neutrophil oxidative burst assay. As to conditions: Leukocyte, 40 min, read-out: Neutrophil oxidative burst Rel EC50 range. The protocol: PMN's (polymorphonuclear leukocytes) were isolated and purified from fresh buffy coats by sequential sedimentation, density centrifugation and lysis of contaminating erythrocytes. Buffy coats were incubated with 2% methocel for 30-45 min to differentially sediment red blood cells. The leukocyte-rich supernatant was transferred to lymphoprep tubes to remove mononuclear cells by density centrifugation (400×g, 30 min). The pellet was resuspended and any remaining erythrocytes lysed using 0.2% NaCl for 30 sec before restoring isotonicity by the addition of 1.2% NaCl. This step was repeated until the cell pellet appears relatively free of red blood cells. Cells were resuspended in DPBS (Dulbecco's Phosphate Buffered Saline) (w.o. Ca^2+, Mg^2+) and the concentration adjusted to 1.4×10^6 cells/ml in HBSS (Hanks Balanced Salt solution) (w Ca^2+, Mg^2+) containing 0.1% BSA (Bovine Serum Albumin) and 5 mM glucose just prior to assay initiation. Titrated reference and test compounds were pre-mixed with HE (Hydroethidine) (10 μM final assay concentration) before addition to 96-well plates containing 2.5×10^5 cells. Following 40 min incubation at RT, changes in the respiratory burst was estimated by measuring fluorescence at 579 nm (excitation: 485 nm) using an Envision plate reader.
Test compound titration curves were fitted to a four-parameter sigmoidal curve after normalizing the effect of the test compound to the effect of the positive control (5×10^−7 M PEP0005). Rel EC50 denotes the concentration of test compound producing an effect that is midway between the fitted top and bottom. Abs EC50 is the concentration of test compound that provokes a response corresponding to 50% of the maximal effect associated with the positive control (5×10^−7 M PEP0005).

For test [2], the system named is Primary human epidermal keratinocytes, HeKa. Put plainly: HeKa cytokine release (IL-8) assay. The protocol: Primary human epidermal keratinocytes, HeKa, were seeded (10.000 cells/well) in 96-well plates the day before the assay. Test compounds were diluted in DMSO (dimethyl sulfoxide) and further diluted in assay medium and pipetted into wells of 96 well-plates containing HeKa cells. The plates were incubated for 6 h at 37° C. in humidified air with 5% CO2. Plates are centrifuged briefly to spin down cells at 4° C., the supernatant was removed and analysed by Meso Scale Discovery (MSD) 4-spot cytokine assay (Pro-inflammatory II Ultra Sensitive kit, MSD, MD, USA). The MSD assay employs a sandwich immunoassay format where capture antibodies were coated in a patterned array on the bottom of the wells of a 4-Spot-Multi-MSD plate. Standard samples were incubated in the MULTI-SPOT plates as well, and the cytokine (IL-8) binds to its corresponding capture antibody spot. The cytokine level was quantitated on a SECTOR™ Imager using a cytokine-specific Detection Antibody labelled with MSD SULFO-TAG™ reagent.
Test compound titration curves were fitted to a four-parameter sigmoidal curve after normalizing the effect of the test compound to the effect of the positive control (1.5×10^−7 M PEP0005). Rel EC50 denotes the concentration of test compound producing an effect that is midway between the fitted top and bottom.

In test [3] the test system is HeLa cells (ATCC CCL-002). Put plainly: Necrosis assay. Particulars: Homo sapiens, 0.5 h, read-out: HeLa necrosis EC50 range. Here is the method:
HeLa cells (ATCC CCL-002) were grown in minimal essential medium (Invitrogen catalog no. 42360) containing 10% fetal bovine serum, 100 IU/ml penicillin and 100 μg/ml streptomycin. 4,000-6,000 cells were seeded into 96-well black ViewPlates-plates, clear bottom, (Perkin Elmer) in 100 μl medium and incubated overnight. Compounds were dissolved and pre-diluted in DMSO in 96-well polypropylene plates (Greiner) in a concentration range of 15 μM to 600 μM. At the time of the experiment cell plates were placed on heating blocks at 37° C., medium was removed and 40 μl fresh, pre-warmed medium was added per well. Cells were incubated for 15 min before addition of compounds. In parallel, 3 μl of compounds were diluted with 197 μl growth medium on a Tecan freedom-EVO pipetting station using 250 μl/s pipetting speed, in order to ensure effective mixing of the highly concentrated compound solutions with the aqueous phase. These pre-dilution plates were then equilibrated on heating blocks at 37° C. for 10 min. 80 μl pre-diluted compound were transferred manually to the corresponding wells containing HeLa cells yielding compound concentrations of 10 μM to 400 μM. Control conditions were 1% DMSO in growth medium (100% viability) and 400 μM ingenol mebutate in growth medium (0% viability). Plates were incubated on the heating blocks at 37° C. for 30 min. At the end of the incubation 10 μl PrestoBlue reagent (Invitrogen) were added to each well, plates were sealed with black seal, followed by incubation at 37° C. for 10 min with gentle shaking (150 rpm). Subsequently, plates were placed at room temperature for 20-30 min. Plates were read immediately after on an Envision Fluorescence reader (Perkin Elmer) with excitation at 535 nm and emission at 630 nm. Test compound titration curves were fitted to a four-parameter sigmoidal curve after normalizing the effect of the test compound to the effect of the positive control (4 10^−4 M PEP0005/ingenol mebutate). AbsEC50 denotes the concentration of test compound producing 50% effect.

[4] abbreviates: 6 h, read-out: HeKa cytokine release (IL-8) Rel EC50 range.

With `CC1=C[C@]23C(=O)[C@@H](C=C(CO)[C@@H](O)[C@]2(O)[C@H]1OC(=O)c1ccc(F)cc1)[C@H]1[C@@H](C[C@H]3C)C1(C)C` [Compound 311, Ingenol 3-(4-fluoro-benzoate)], the pEC50 in test [1] is more than 7.70; in test [2] (setting [4]), more than 7.70; in test [3], more than 3.82.
With `COc1ccccc1C(=O)O[C@H]1C(C)=C[C@]23C(=O)[C@@H](C=C(CO)[C@@H](O)[C@]12O)[C@H]1[C@@H](C[C@H]3C)C1(C)C` [Compound 312, Ingenol 3-(2-methoxy-benzoate)], the pEC50 was more than 7.70 in test [1], 7.00 to 7.70 in test [2] (setting [4]) and more than 3.82 in test [3].
Consider `COc1ccc(C(=O)O[C@H]2C(C)=C[C@]34C(=O)[C@@H](C=C(CO)[C@@H](O)[C@]23O)[C@H]2[C@@H](C[C@H]4C)C2(C)C)cc1` [Compound 313, Ingenol 3-(4-methoxy-benzoate)], for which the pEC50 is more than 7.70 in test [1], more than 7.70 in test [2] (setting [4]) and more than 3.82 in test [3].
As for `CC1=C[C@]23C(=O)[C@@H](C=C(CO)[C@@H](O)[C@]2(O)[C@H]1OC(=O)c1ccc(F)cc1F)[C@H]1[C@@H](C[C@H]3C)C1(C)C` [Compound 314, Ingenol 3-(2,4-difluoro-benzoate)], the figures for the pEC50 in test [1], in test [2] (setting [4]) and in test [3] were more than 7.70, more than 7.70 and more than 3.82, respectively.
As to `CC1=C[C@]23C(=O)[C@@H](C=C(CO)[C@@H](O)[C@]2(O)[C@H]1OC(=O)c1c(C)cccc1C)[C@H]1[C@@H](C[C@H]3C)C1(C)C` [Compound 315, Ingenol 3-(2,6-dimethyl-benzoate)], the negative-log EC50 (pEC50) was more than 7.70 in test [1], 7.00 to 7.70 in test [2] (setting [4]) and more than 3.82 in test [3].
Turning to `COc1cccc(OC)c1C(=O)O[C@H]1C(C)=C[C@]23C(=O)[C@@H](C=C(CO)[C@@H](O)[C@]12O)[C@H]1[C@@H](C[C@H]3C)C1(C)C` [Compound 316, Ingenol 3-(2,6-dimethoxy-benzoate)], the pEC50 was 7.00 to 7.70 in test [1], 7.00 to 7.70 in test [2] (setting [4]) and 3.46 to 3.82 in test [3].
Take `CC1=C[C@]23C(=O)[C@@H](C=C(CO)[C@@H](O)[C@]2(O)[C@H]1OC(=O)c1cccc2ccccc12)[C@H]1[C@@H](C[C@H]3C)C1(C)C` [Compound 319, Ingenol 3-(naphthalene-1-carboxylate)]: the pEC50 in test [1] was more than 7.70; in test [2] (setting [4]), more than 7.70; in test [3], more than 3.82.
Consider `CC1=C[C@]23C(=O)[C@@H](C=C(CO)[C@@H](O)[C@]2(O)[C@H]1OC(=O)c1ccccc1-c1ccccc1)[C@H]1[C@@H](C[C@H]3C)C1(C)C` [Compound 320, Ingenol 3-(2-phenyl-benzoate)], for which the values for the pEC50 in test [1], in test [2] (setting [4]) and in test [3] were more than 7.70, more than 7.70 and more than 3.82, respectively.
In the case of `CC1=C[C@]23C(=O)[C@@H](C=C(CO)[C@@H](O)[C@]2(O)[C@H]1OC(=O)c1ccccc1Br)[C@H]1[C@@H](C[C@H]3C)C1(C)C` [Compound 321, Ingenol 3-(2-bromo-benzoate)], the values for the pEC50 in test [1], in test [2] (setting [4]) and in test [3] were more than 7.70, more than 7.70 and more than 3.82, respectively.
For `CC1=C[C@]23C(=O)[C@@H](C=C(CO)[C@@H](O)[C@]2(O)[C@H]1OC(=O)c1ccccc1Oc1ccccc1)[C@H]1[C@@H](C[C@H]3C)C1(C)C` [Compound 322, Ingenol 3-(2-phenoxy-benzoate)], the figures for the pEC50 in test [1], in test [2] (setting [4]) and in test [3] were more than 7.70, more than 7.70 and more than 3.82, respectively.
Regarding `CC1=C[C@]23C(=O)[C@@H](C=C(CO)[C@@H](O)[C@]2(O)[C@H]1OC(=O)c1ccccc1C(C)C)[C@H]1[C@@H](C[C@H]3C)C1(C)C` [Compound 323, Ingenol 3-(2-isopropyl-benzoate)], the results for the pEC50 in test [1], in test [2] (setting [4]) and in test [3] were more than 7.70, more than 7.70 and more than 3.82, respectively.
For `CC1=C[C@]23C(=O)[C@@H](C=C(CO)[C@@H](O)[C@]2(O)[C@H]1OC(=O)c1ccccc1OC(C)C)[C@H]1[C@@H](C[C@H]3C)C1(C)C` [Compound 324, Ingenol 3-(2-isopropoxy-benzoate)], the negative logarithm of the EC50 (pEC50) in test [1] is more than 7.70; in test [2] (setting [4]) it was more than 7.70; in test [3], more than 3.82.
Turning to `CC1=C[C@]23C(=O)[C@@H](C=C(CO)[C@@H](O)[C@]2(O)[C@H]1OC(=O)c1c(C)cc(C)cc1C)[C@H]1[C@@H](C[C@H]3C)C1(C)C` [Compound 325, Ingenol 3-(2,4,6-trimethyl-benzoate)], the pEC50 was more than 7.70 in test [1], more than 7.70 in test [2] (setting [4]) and more than 3.82 in test [3].
As to `CC1=C[C@]23C(=O)[C@@H](C=C(CO)[C@@H](O)[C@]2(O)[C@H]1OC(=O)c1ccccc1N)[C@H]1[C@@H](C[C@H]3C)C1(C)C` [Compound 330, Ingenol 3-(2-amino-benzoate)], the pEC50 in test [1] (40 min incubation at RT, normalized to positive control 5×10^−7 M PEP0005) was more than 7.70; in test [2] (6 h at 37° C., normalized to positive control 1.5×10^−7 M PEP0005, read-out: HeKa cytokine release (IL-8) Rel EC50 range) it was more than 7.70; in test [3] (30 min at 37° C., PrestoBlue, normalized to 4 10^−4 M PEP0005/ingenol mebutate), 3.46 to 3.82.
With `CC1=C[C@]23C(=O)[C@@H](C=C(CO)[C@@H](O)[C@]2(O)[C@H]1OC(=O)c1ccccc1NCc1ccccc1)[C@H]1[C@@H](C[C@H]3C)C1(C)C` [Compound 331, Ingenol 3-(2-benzylamino-benzoate)], the pEC50 was more than 7.70 in test [1], more than 7.70 in test [2] (setting [4]) and more than 3.82 in test [3].
`CC1=C[C@]23C(=O)[C@@H](C=C(CO)[C@@H](O)[C@]2(O)[C@H]1OC(=O)c1c(C)cccc1NCc1ccccc1)[C@H]1[C@@H](C[C@H]3C)C1(C)C` [Compound 332, Ingenol 3-(2-benzylamino-6-methyl-benzoate)]: the pEC50 in test [1] was 7.00 to 7.70; in test [2] (setting [4]) it was more than 7.70; in test [3], more than 3.82.
As to `COc1cccc(NCc2ccccc2)c1C(=O)O[C@H]1C(C)=C[C@]23C(=O)[C@@H](C=C(CO)[C@@H](O)[C@]12O)[C@H]1[C@@H](C[C@H]3C)C1(C)C` [Compound 333, Ingenol 3-(2-benzylamino-6-methoxy-benzoate)], the pEC50 was 7.00 to 7.70 in test [1], more than 7.70 in test [2] (setting [4]) and more than 3.82 in test [3].

Broadly, the pEC50 is the negative decadic logarithm of the EC50, by convention in mol/L.
